Source: ChEMBL document CHEMBL3785049, “Fragment-based discovery of inhibitor scaffolds targeting the metallo-β-lactamases NDM-1 and VIM-2” (Bioorg Med Chem Lett, 2016)

Legend:
[1] = target: T1, Metallo-beta-lactamase type 2 (Klebsiella pneumoniae, UniProt C7C422); test: Competitive inhibition of His-tagged Klebsiella pneumoniae NDM-1 expressed in Escherichia coli BL21-AI cells using imipinem as substrate
[2] = target: Metallo-beta-lactamase type 2 (Klebsiella pneumoniae) (UniProt C7C422); test: Ratio of IC50 for inhibition of His-tagged Klebsiella pneumoniae NDM-1 expressed in Escherichia coli BL21-AI cells using imipinem as substrate to Kd for Binding affinity to His-tagged Klebsiella pneumoniae NDM-1 expressed in Escherichia coli BL21-AI cells by surface plasmon resonance assay
Sequence of Metallo-beta-lactamase type 2 (Klebsiella pneumoniae) (C7C422 whole entry): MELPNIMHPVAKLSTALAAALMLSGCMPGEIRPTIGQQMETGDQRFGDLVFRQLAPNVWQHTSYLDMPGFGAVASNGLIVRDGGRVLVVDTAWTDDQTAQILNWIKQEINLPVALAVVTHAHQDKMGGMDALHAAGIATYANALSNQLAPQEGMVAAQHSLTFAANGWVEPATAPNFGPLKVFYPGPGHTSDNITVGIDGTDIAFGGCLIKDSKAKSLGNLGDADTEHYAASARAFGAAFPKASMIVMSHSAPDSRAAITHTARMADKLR

[3] = target: T1, Metallo-beta-lactamase type 2; test: Inhibition of His-tagged Klebsiella pneumoniae NDM-1 expressed in Escherichia coli BL21-AI cells using imipinem as substrate
[4] = target: Metallo-beta-lactamase type 2 (Klebsiella pneumoniae) (UniProt C7C422); test: Inhibition of His-tagged Klebsiella pneumoniae NDM-1 expressed in Escherichia coli BL21-AI cells at 500 uM using imipinem as substrate
[5] = target: T1, Metallo-beta-lactamase type 2; test: Binding affinity to His-tagged Klebsiella pneumoniae NDM-1 expressed in Escherichia coli BL21-AI cells by surface plasmon resonance assay

T1 sequence (C7C422 whole entry): as above

Structure (SMILES) | Ki [1] [µM] | Ratio [2] | IC50 ([3]; read-out: IC50) [µM] | inhibition [4] [%] | Kd [5] [µM] | IC50 ([3]; read-out: pIC50 (converted)) [µM]
O=C(O)CSc1ccnc2cc(Cl)ccc12 | – | 1.5 | 1240 | > 20 | 804 | 1070
CCCc1ccc(C(=O)CCC(=O)O)cc1 | – | 1.5 | 3110 | > 20 | 2100 | –
O=C(O)CCCc1c[nH]c2ccccc12 | – | 1.5 | 1950 | > 20 | 806 | –

These reach a lower Kd [5]. Values come first.

Ki [1] [µM] | Ratio [2] | IC50 ([3]; read-out: IC50) [µM] | inhibition [4] [%] | Kd [5] [µM] | IC50 ([3]; read-out: pIC50 (converted)) [µM] | Structure (SMILES)
186 | 1.5 | 480 | > 20 | 181 | – | N#Cc1coc2ccccc2c1=O
– | – | – | – | 11 | – | C[C@@H](O)[C@H]1C(=O)N2C(C(=O)O)=C(S[C@@H]3CN[C@H](C(=O)N(C)C)C3)[C@H](C)[C@H]12 [MEROPENEM]
